The numbers were not newly measured in patent US20180169172A1, “COMPOUND AND METHOD FOR REDUCING APPETITE, FATIGUE AND PAIN” (priority 2018, published 2018), which cites them from elsewhere.

Like-named read-outs stand apart in the source and are kept apart here.

For data set [1], the target named is μ-subtype opioid receptor (MOR) (Homo sapiens, UniProt P35372).
For a further data set, the system named is mice. The settings on record: even upon oral administration.
Another data set relates to gastrointestinal transit. Particulars: subcutaneous, mice.
The test system of a further data set is pain. Particulars: by mouth, immediate-release formulation.
For data set [2] the following is noted: microplate reader determination.
Assay in data set [3]: not given
The source holds these as a separate data set.

A further data set deals with animal. The settings on record: animal studies, versus codeine.
The test system of another data set is Kratom users. Particulars: even after chronic and high dosage consumption.
For data set [4], the system named is compound nerve action potential. Particulars: 2 mg/mL.
Assay in data set [5]: not given
This is another data set of the same source.

Another data set relates to rats. Particulars: 200 mg/kg in rats; mitragynine given orally.
For the next data set, the system named is skeletal muscle. Particulars: rat, in vivo.
For the next data set, the system named is rodents. Particulars: dose levels of 800-900 mg/kg in rodents.
Assay in data set [6]: not given
This is another data set of the same source.

The mark [7] stands for this setting: nine subjects, oral Kratom tea, loading dose.

μ-subtype opioid receptor (MOR), sequence (P35372 whole entry): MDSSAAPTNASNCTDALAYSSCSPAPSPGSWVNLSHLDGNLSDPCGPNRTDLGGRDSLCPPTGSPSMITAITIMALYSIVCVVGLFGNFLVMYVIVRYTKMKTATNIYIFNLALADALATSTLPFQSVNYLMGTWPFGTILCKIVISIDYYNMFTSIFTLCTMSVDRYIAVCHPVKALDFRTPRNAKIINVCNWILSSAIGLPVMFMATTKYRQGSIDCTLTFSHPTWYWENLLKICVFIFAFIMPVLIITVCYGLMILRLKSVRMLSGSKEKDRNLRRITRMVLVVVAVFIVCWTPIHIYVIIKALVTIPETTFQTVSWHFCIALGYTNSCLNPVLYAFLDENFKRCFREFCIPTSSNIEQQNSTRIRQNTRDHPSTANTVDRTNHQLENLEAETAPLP

Turning to `CC[C@@H]1CN2CC[C@@]3(O)C(=Nc4cccc(OC)c43)[C@@H]2C[C@@H]1/C(=C\OC)C(=O)OC` [7-hydroxymitragynine, (αE,2S,3S,7aS,12bS)-3-ethyl-1,2,3,4,6,7,7a,12b-octahydro-7a-hydroxy-8-methoxy-α-(methoxymethylene)-indolo [2,3-a]quinolizine-2-acetic acid methyl ester], the “agonism at μ-subtype opioid receptor” value in data set [1] is “selective and full agonists”. In addition, in the data set with mice, the “analgesic potency relative to morphine” value is given as “several times more potent analgesic than morphine”. The gastrointestinal transit result in the data set on gastrointestinal transit was “caused an inhibition”.

Consider `COc1cccc(C2(O)CCCCC2CN(C)C)c1` (stereo not shown) [Tramadol, tramadol], for which the “onset of pain relief” value with pain is given as “within an hour”.

For the compound `CC[C@@H]1CN2CCc3c([nH]c4cccc(OC)c34)[C@@H]2C[C@@H]1/C(=C\OC)C(=O)OC` [mitragynine, (αE,2S,3S,12bS)-3-ethyl-1,2,3,4,6,7,12,12b-octahydro-8-methoxy-α-(methoxymethylene)-indolo[2,3-a]quinolizine-2-acetic acid methyl ester], the pKa in [2] is 8.08±0.04. For the setting “acidic environments”, the stability in acid entry is “acid labile”. The water solubility (water) was under 100 µg/mL. Besides, the solubility result (water and basic media) is “poor solubility in water and basic media”. Moreover, the “urine excretion of unchanged form” value in data set [3] (24-hour period) is 0.14%. Besides, in [3] (setting [7]), the “apparent volume of distribution” value is 38.04 ± 24.32 L/kg, the terminal half-life was 23.24 ± 16.07 h and the “time to reach the maximum plasma concentration” value is 0.83 ± 0.35 h. In the data set on animal, the antinociceptive effect entry was “comparable to those of codeine” and the cough-suppressant effect result was “comparable to those of codeine”. Besides, the “mortalities following consumption alone” value with Kratom users is “no reports of mortalities”. In addition, the “agonism at μ-subtype opioid receptor” value in data set [1] was “selective and full agonists”. Moreover, the “nerve conduction, amplitude and duration of compound nerve action potential” value in data set [4] is “blocked”. Moreover, the “total drug release in dissolution” value in data set [5] (simulated gastric fluid (SGF)) is “higher”. For the same compound, the “total drug release in dissolution” value in data set [5] (simulated intestinal fluid (SIF)) was “prolonged and incomplete”. Also, the “2-deoxy-D-glucose-stimulated gastric acid secretion” value with gastric acid secretion (administration into fourth ventricle of anesthetized rats, reversed by naloxone) is recorded as “inhibition”. In addition, the “basal gastric acid secretion” value with gastric acid secretion (administration into the lateral ventricle) is on record as “did not alter”. For the same compound, the lethality entry in the data set with rats is “lethal effects”. Further, the skeletal muscle relaxation result in the data set on skeletal muscle is recorded as “produced skeletal muscle relaxation”. Moreover, the toxicity entry in the data set on rodents is “no toxicity”. Also, the logP in [6] is given as 1.73.

By pKa is commonly meant the pH at which an ionisable group is half protonated. A word on the logP: it is the decadic logarithm of the partition coefficient of the neutral form, usually between octanol and water.
